Laboratory results reported in patent US5385831A, “Method for producing a mammalian G protein coupled glutamate receptor” (priority 1993, dated 1995).

How the values were obtained:
[1] = system: glutamate G protein coupled receptor; assay: Voltage-clamp assay of antagonist inhibition of glutamic acid-evoked current in injected oocytes; type: cell-based, rat; conditions: 1 mM DL-AP3
Description: Voltage clamp assays were also carried out on injected oocytes to measure the inhibition by the putative glutamate G protein coupled receptor antagonist, 2-amino-3-phosphonopropionic acid (AP3).

[2] = molecular target: T1, GluG R encoded by clone 45-A (Rattus norvegicus, UniProt P23385); assay: Voltage-clamp assay of L-glutamic acid analogs at saturating concentrations in injected oocytes; type: cell-based; parameters: expressed in transfected cells; host or cells: Xenopus oocytes injected with in vitro transcribed (T7, pVEGT') clone 45-A RNA
T1 sequence (P23385 19-1199): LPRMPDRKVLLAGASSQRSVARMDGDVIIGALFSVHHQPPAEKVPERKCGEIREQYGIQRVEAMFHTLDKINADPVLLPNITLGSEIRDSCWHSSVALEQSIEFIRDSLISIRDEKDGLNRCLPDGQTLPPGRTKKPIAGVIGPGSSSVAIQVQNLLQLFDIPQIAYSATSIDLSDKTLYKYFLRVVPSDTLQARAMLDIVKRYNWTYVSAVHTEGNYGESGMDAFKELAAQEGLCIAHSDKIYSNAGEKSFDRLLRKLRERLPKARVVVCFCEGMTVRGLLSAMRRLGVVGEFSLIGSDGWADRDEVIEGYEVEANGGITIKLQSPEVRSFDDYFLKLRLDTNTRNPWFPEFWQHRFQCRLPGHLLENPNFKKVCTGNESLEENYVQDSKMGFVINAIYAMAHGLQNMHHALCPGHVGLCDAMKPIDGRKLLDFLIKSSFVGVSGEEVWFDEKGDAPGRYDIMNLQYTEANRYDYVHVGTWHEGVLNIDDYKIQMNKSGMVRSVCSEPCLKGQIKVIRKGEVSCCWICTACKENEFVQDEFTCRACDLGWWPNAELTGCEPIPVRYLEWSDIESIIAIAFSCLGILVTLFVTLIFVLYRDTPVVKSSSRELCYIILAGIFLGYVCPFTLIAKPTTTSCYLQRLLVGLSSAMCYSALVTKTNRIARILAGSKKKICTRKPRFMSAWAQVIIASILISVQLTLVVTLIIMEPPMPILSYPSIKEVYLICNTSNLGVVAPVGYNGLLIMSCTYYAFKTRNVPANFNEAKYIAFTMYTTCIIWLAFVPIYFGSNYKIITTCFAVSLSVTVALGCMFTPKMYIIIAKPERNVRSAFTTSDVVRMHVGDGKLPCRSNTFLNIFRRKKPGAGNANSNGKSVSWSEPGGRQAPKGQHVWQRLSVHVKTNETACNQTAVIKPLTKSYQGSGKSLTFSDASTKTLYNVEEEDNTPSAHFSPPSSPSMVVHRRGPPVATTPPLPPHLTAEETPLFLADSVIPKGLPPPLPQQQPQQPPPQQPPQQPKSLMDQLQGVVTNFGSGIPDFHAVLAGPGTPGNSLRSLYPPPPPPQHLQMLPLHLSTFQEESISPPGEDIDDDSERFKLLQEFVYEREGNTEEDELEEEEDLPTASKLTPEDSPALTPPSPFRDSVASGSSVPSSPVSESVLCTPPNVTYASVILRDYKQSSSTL

[3] = molecular target: T1, GluG R encoded by clone 45-A; conditions: read-out: Glutamate Analog Potencies (EC50); Xenopus oocytes injected with 45-A RNA; responses normalized to subsequent response to 100 μM L-glutamic acid
GluG R = assay: Voltage-clamp assay of oocytes injected with RNA from rat cerebellum cDNA library pools; type: cell-based
Description: Plasmid DNA prepared from each of the 10 pools of 100,000 clones, which in total represented one sublibrary of one million clones of the cerebellum cDNA library, was purified by cesium chloride gradient ultracentrifugation. The DNA was transcribed in vitro with T7 RNA polymerase (Pharmacia) in the presence of capped nucleotide (GpppG, Pharamcia). […] The transcription reaction tubes were set up by adding 12 μl of 5× transcription buffer (Stratagene Cloning Systems, La Jolla, Calif.), 3 μl each of 10 mM ATP, CTP, GTP, and UTP, 6 μl of 10 mM GpppG (Pharmacia), 6 μl of 1 mg/ml BSA, 3 μl of 200 mM DTT, 1.5 μl of 40 U/μl RNasin (ProMega Biotech, Madison, Wis.), 8.5 μl of water, 10 μl of cDNA containing 5 to 10 μg DNA, and 1 μl of 70 U/μl T7 RNA polymerase. […] Forty microliters of water was added to the radiolabeled reactions, and 1 μl was removed from each sample and counted to determine total counts. […] The samples were centrifuged to collect the RNA and the RNA pellets were counted to determine the counts incorporated into RNA. […]
The RNA from each of the 10 sublibraries were injected into oocytes as described above and translation was allowed for four days. Expression of GluG R activity was assessed by voltage-clamp assay as described above. […]

For `NC(CP(=O)(O)O)C(=O)O` (racemic) [DL-AP3, 2-amino-3-phosphonopropionic acid], the “current evoked by 10 μM glutamic acid, reduced to % of the control” value [1] was 59.3±7.3%.

In the case of `Cc1onc(O)c1CC(N)C(=O)O` (stereo not drawn) [AMPA, α-amino-3-hydroxy-5-methyl-isoxazole-4-propionic acid], the “response normalized to a subsequent response to 100 μM L-glutamate (effective/ineffective)” value (“response normalized … (effective/ineffective)” below) ([2]; 100 μM) is reported as “ineffective”.

For `NC(CCP(=O)(O)O)C(=O)O` (stereo not drawn) [APB, 2-amino-4-phosphonobytyric acid], the “response normalized … (effective/ineffective)” value ([2]; 100 μM) was “ineffective”.

With `N[C@H](C(=O)O)c1cc(=O)[nH]o1` [Ibotenic acid, ibotenic acid] the EC50 [3] was 32.4 µM.

For `CN[C@H](CC(=O)O)C(=O)O` [NMDA, N-methyl-D-aspartic acid], the “response normalized … (effective/ineffective)” value ([2]; 100 μM NMDA + 10 μM glycine) was “ineffective”.

In the case of `N[C@@H](Cn1oc(=O)[nH]c1=O)C(=O)O` [Quisqualic acid, quisqualic acid], the “peak current in response to quisqualate” value (GluG R; oocyte injected with approximately 100 ng RNA from subfractionated pool of 14,000 colonies, estimated from a digital panel meter) is reported as “approximately 1300 nA” and the “signal with administration of quisqualate to the oocyte” value (GluG R; sublibrary pool Z93-1.9 (100,000 clones)) is reported as “produced a signal”.

For `N[C@@H](CC(=O)O)C(=O)O` [aspartic acid], the “response normalized … (effective/ineffective)” value ([2]; 1 mM) was “ineffective”.

With `C=C(C)[C@H]1CN[C@H](C(=O)O)[C@H]1CC(=O)O` [kainic acid] the “response normalized … (effective/ineffective)” value ([2]; 1 mM) was “ineffective”.
